From US7157078B2, “Devices and methods for eliminating termite colonies” (The University of Florida Research Foundation, Inc., priority 2001, dated 2007)

test system: termites from the genus/specie Reticulitermes flavipes or Coptotermes formosanus; assay: Termiticide activity (Reference Example 3); format: in vivo; settings: 0.5% compound on Whatman #1 filter paper, 20 termites per well, triplicate
Procedure: The tests, run in triplicate, are set up in three wells of a 6-well polystyrene microtiter plate (3 wells are empty). Four circles of either 3.2 cm Whatman #1 filter paper (cellulose) for the food controls and tests on compounds, or 3.2 cm Whatman GF/C glass microfibre filters (borosilicate glass) for the no-food controls are stacked in each well. For the food controls, 600 microliters of water are added to each wen. For the no-food controls 1200 microliters of water are added to those wells. If the test compounds are water soluble, they are added to the wells in 600 microliters of water to deliver 0.5% compound. Water insoluble test compounds are added to the wells in a solvent in which they are soluble to deliver 0.5% compound, the solvent is evaporated, and 600 microliters of water added per well.
Termiticidal activity for a compound is measured using termites from the genus/specie Reticulitermes flavipes or Coptotermes formosanus. The termites are added in groups of 20 per well. Every 34 days the termites are counted. The number of days until 50% death (DTD50) and 100% death for termites is determined. These values for termites in the wells containing test compounds are compared to the food and no-food controls to determine which compounds display termiticidal activity.
Various compounds were analyzed by the method of Reference Example 3.

Going from `CC(C)NCC(O)COc1cccc2ccccc12` (stereo not drawn) [CAS No. 4199-10-4] to `COC(=O)C[S+]([O-])c1ccccc1` (stereo not drawn) [CAS No. 14090-83-6], the “DTD50 (number of days until 50% death)” value falls from 77 days to 35 days.

Going from `NC1CCN(Cc2ccccc2)CC1` [CAS No. 50541-93-0] to `OC[C@H]1O[C@@H](Oc2ccccc2)[C@H](O)[C@@H](O)[C@@H]1O` [CAS No. 1464-44-4, Phenyl-beta-D-glycoside], the “DTD50 (number of days until 50% death)” value falls from 59 days to 15 days.

`O=c1c2ccccc2nnn1O` [CAS No. 28230-32-2] and `O=C(Nc1ccccc1)c1cccnc1` [CAS No. 1752-96-1] are the same in “DTD50 (number of days until 50% death)” value: 80 days for the first, 80 days for the second.

Compared with `CC(=O)c1ccc(-n2ccnc2)cc1` [CAS No. 10041-06-2], `COc1ccc(NC(=O)CC(C)=O)cc1` [CAS No. 5437-98-9] is lower in “DTD50 (number of days until 50% death)” value: 35 days for the first, 31 days for the second.

Compared with `O=[N+]([O-])c1ccc(OC2OC(CO)C(OC3OC(CO)C(OC4OC(CO)C(O)C(O)C4O)C(O)C3O)C(O)C2F)c([N+](=O)[O-])c1` (stereo not drawn) [CAS No. 213193-76-1], `O=[N+]([O-])c1ccc(OC2OC(CO)C(OC3OC(CO)C(O)C(O)C3O)C(O)C2F)c([N+](=O)[O-])c1` (stereo not drawn) [CAS No. 154862-23-4] is higher in “DTD50 (number of days until 50% death)” value: 60 days for the first, 66 days for the second.

Going from `Cc1nc2cc(C)c(C)cc2[nH]1` [CAS No. 3363-56-2] to `CC(C)(c1ccc(O)cc1)c1ccc(O)cc1` [CAS No. 80-05-7], the “DTD50 (number of days until 50% death)” value falls from 63 days to 42 days.

Going from `OCC1OC(F)C(F)C(O)C1O` (stereo not drawn) to `OCC1OC(O)(C(F)(F)F)C(O)C(O)C1O` (stereo not drawn), the “DTD50 (number of days until 50% death)” value rises from 33 days to 41 days.

First: CC1(C)CC(O)CC(C)(C)N1O [CAS No. 2226-96-2]
Second: CC(C)(C1CCC(O)CC1)C1CCC(O)CC1 (stereo not drawn) [CAS No. 80-04-6]
The “DTD50 (number of days until 50% death)” value of the first is lower: 32 days for the first, 62 days for the second.

Going from `OCC1OC(OC2C(CO)OC(Oc3ccccc3)C(O)C2O)C(O)C(O)C1O` (stereo not drawn) to `CC(=O)Oc1ccc(C(C)(C)c2ccc(OC(C)=O)cc2)cc1` [CAS No. 10192-62-8], the “DTD50 (number of days until 50% death)” value rises from 27 days to 70 days.

same assay, conditions: at day 73; 0.5% compound on filter paper, 20 termites per well

For `Cc1cc(C(C)(C)c2cc(C)c(O)c(C)c2)cc(C)c1O` [CAS No. 5613-46-7], the “termite death (printed in DTD50 column)” value was 42% atday 73.

same assay, conditions: by day 53; 0.5% compound on filter paper, 20 termites per well

`O=S(=O)(NCCc1c[nH]cn1)c1ccccc1` [CAS No. 195052-64-3] was tested, and the “termite death (printed in DTD50 column)” value was 48%by day53.

test system: termites; assay: Termiticide preference test (Reference Example 4); format: in vivo; settings: 100 termites per dish, about 7 days
Procedure: The test is performed in 100 millimeter Petri dishes into which 20 grams of washed sand and 2 milliliters of water are distributed. Six circles (three plain and thee treated with the compound of interest) of Whatman #1 filter paper (15 millimeters) are used as food. The treated circles are prepared by pipetting a small volume (approximately 25 microliters) of a solution of the compound in an appropriate solvent onto the filter paper circles, and then evaporating the solvent.
The filter paper circles are arranged in the dish in two rows using an alternating pattern of treated and untreated. One hundred termites are then added to the dish. The test is run for about 7 days to determine if any eating preference is seen between the treated and untreated filter paper circles.

`CC(C)(C1CCC(O)CC1)C1CCC(O)CC1` (stereo not drawn) [CAS No. 80-04-6] was tested, and the “preference test result (treated vs untreated filter paper circles)” value was “passes the preference test”.
